Test results published in the NIST ThermoML archive (doi:10.1016/j.tca.2012.07.004).

Experiment: xn = mol fraction of the nth substance listed
Settings: 101 kPa, Liquid; for mass density: Vibrating tube method; for viscosity: Vibrating wire viscometry; for speed of sound: ultrasonic interferometer

C[NH+](C)C.O=S(=O)([O-])O [trimethylammonium hydrogen sulfate] + CN1CCCC1=O
Settings | mass density, 298.15 K [kg/m3] | mass density, 303.15 K [kg/m3] | speed of sound, 298.15 K [m/s] | speed of sound, 303.15 K [m/s] | viscosity, 298.15 K [mPa·s] | viscosity, 303.15 K [mPa·s]
x1 = 0.0183 | 1041.67 | 1037.3 | 1572 | 1552 | 2.72 | 2.02
x1 = 0.0369 | 1053.11 | 1048.09 | 1573 | 1553 | 3.99 | 2.9
x1 = 0.0964 | 1086.47 | 1080.22 | 1576 | 1556 | 6.59 | 5.22
x1 = 0.138 | 1103.99 | 1098.35 | 1578 | 1558 | 8.37 | 6.83
x1 = 0.2014 | 1128.96 | 1122.72 | 1580 | 1562 | 10.5 | 8.56
x1 = 0.3115 | 1160.07 | 1154.59 | 1584 | 1568 | 12.1 | 9.88
x1 = 0.3587 | 1170.49 | 1161.24 | 1586 | 1571 | 12.2 | 9.93
x1 = 0.4311 | 1187.05 | 1177.45 | 1588 | 1573 | 11.9 | 9.66
x1 = 0.5579 | 1214.39 | 1204.95 | 1590 | 1577 | 10.3 | 8.28
x1 = 0.6955 | 1257.13 | 1247.15 | 1591 | 1575 | 8.34 | 6.8
x1 = 0.775 | 1295.34 | 1283.75 | 1584 | 1572 | 7.25 | 6.01
x1 = 0.843 | 1334.58 | 1321.99 | 1581 | 1571 | 6.05 | 5.07
x1 = 0.9375 | 1403.82 | 1389.78 | 1573 | 1567 | 5.39 | 4.66
x1 = 0.97 | 1439.41 | 1426.11 | 1566 | 1563 | 5.24 | 4.59
x1 = 1 | 1467.58 | 1463.56 | 1564 | 1560 | 5.1 | 4.48
